Read-outs that look alike come from different tables or passages of the source.
Tests used:
Test in all cases: SelectScreen Kinase Profiling, single point inhibition and IC50 for off-target kinases
Type in all cases: biochemical
[1] = biological target: T1, off-target kinases (Homo sapiens, UniProt Q9UF33); settings: EPHA6, LanthaScreen Binding
T1 sequence (Q9UF33 23-1036): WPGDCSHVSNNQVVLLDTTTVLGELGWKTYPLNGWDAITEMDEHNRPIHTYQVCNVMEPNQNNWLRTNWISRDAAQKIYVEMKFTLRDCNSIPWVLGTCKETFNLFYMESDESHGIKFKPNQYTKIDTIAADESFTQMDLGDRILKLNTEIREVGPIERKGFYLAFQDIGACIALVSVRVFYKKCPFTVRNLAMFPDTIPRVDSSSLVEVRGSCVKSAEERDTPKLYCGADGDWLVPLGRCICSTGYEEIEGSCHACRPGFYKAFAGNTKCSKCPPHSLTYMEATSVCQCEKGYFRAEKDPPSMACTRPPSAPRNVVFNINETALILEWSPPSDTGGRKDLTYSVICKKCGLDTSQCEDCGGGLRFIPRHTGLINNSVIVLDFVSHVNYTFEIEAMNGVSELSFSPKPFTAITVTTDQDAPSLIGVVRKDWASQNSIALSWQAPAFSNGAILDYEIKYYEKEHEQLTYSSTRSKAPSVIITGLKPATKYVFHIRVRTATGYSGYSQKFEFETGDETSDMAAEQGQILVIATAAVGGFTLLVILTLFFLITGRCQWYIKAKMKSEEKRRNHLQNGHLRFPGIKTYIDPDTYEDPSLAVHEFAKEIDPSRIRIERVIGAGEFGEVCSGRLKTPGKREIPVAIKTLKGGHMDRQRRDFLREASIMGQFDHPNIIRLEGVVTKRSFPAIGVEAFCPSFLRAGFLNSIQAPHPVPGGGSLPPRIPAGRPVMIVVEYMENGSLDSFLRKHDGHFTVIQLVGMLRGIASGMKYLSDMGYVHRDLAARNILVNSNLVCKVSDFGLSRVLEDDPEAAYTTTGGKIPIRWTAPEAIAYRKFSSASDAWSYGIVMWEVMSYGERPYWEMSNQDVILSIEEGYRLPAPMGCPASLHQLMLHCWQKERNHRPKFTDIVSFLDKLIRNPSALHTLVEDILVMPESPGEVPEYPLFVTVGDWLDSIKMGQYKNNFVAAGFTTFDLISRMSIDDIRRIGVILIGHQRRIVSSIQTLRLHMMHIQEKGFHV

[2] = biological target: T2, off-target kinases (Homo sapiens, UniProt O43318); settings: MAP3K7/MAP3K7IP1 (TAK1-TAB1), LanthaScreen Binding
T2 sequence (O43318 1-606): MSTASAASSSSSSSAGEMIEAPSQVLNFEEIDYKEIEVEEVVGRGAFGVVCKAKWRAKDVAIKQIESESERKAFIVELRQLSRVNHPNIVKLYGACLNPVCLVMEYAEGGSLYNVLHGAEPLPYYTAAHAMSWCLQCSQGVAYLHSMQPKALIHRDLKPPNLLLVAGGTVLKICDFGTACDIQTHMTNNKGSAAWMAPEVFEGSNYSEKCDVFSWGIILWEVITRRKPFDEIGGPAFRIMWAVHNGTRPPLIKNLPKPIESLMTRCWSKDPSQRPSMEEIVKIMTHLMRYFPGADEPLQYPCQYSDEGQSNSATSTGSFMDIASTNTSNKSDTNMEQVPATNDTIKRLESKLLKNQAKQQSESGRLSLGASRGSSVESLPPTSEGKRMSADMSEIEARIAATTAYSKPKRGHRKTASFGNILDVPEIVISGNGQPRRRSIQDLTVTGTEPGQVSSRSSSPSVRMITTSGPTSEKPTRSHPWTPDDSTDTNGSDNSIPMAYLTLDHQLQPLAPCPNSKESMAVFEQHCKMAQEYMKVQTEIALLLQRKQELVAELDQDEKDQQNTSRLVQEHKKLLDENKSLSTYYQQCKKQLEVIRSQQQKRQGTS

[3] = biological target: off-target kinases (Homo sapiens, UniProt P42684); settings: ABL2 (Arg), ZLYTE, ATP Km app
Chain of off-target kinases (Homo sapiens, UniProt P42684) (P42684 whole entry): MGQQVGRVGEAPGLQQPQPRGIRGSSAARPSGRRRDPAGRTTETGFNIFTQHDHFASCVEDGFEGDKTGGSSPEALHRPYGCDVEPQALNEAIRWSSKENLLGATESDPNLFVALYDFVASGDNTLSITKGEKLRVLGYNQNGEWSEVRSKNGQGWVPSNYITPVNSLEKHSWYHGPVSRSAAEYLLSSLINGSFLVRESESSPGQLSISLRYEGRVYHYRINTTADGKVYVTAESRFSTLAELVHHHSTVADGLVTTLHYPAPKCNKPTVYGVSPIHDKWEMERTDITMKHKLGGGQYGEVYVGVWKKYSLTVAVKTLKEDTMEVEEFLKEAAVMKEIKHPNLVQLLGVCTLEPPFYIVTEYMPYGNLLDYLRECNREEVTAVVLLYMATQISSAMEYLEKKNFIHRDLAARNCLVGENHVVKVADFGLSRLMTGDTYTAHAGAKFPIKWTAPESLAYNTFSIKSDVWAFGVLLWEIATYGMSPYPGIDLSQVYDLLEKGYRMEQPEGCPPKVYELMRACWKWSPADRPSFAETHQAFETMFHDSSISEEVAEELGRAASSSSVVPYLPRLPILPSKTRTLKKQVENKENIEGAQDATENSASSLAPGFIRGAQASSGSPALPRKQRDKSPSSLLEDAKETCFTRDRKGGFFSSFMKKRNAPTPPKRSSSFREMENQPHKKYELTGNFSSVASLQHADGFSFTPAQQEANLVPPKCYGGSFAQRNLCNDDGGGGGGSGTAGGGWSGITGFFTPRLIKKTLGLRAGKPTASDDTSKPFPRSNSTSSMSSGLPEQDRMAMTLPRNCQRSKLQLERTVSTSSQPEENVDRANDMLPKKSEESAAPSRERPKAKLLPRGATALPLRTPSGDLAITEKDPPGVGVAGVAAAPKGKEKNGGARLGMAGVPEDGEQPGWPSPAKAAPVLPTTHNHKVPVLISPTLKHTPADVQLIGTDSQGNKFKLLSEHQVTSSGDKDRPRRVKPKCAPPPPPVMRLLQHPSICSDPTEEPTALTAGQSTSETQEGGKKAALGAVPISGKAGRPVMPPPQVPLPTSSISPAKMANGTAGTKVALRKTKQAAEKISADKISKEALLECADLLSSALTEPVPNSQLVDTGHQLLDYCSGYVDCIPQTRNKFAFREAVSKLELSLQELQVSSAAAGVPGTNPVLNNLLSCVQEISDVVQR

N#Cc1cc(-c2ncnc(Nc3ccc(N4CCN(C5COC5)CC4)cc3)n2)ccc1OC1CCOCC1 [Compound 1, 5-(4-((4-(4-(oxetan-3-yl)piperazin-1-yl)phenyl)amino)-1,3,5-triazin-2-yl)-2-((tetrahydro-2H-pyran-4-yl)oxy)benzonitrile]
inhibition ([1]; read-out: % Inhibition 1): 9% | inhibition ([1]; read-out: % Inhibition 2): 20% | inhibition ([1]; read-out: % Inhibition Avg): 14% | inhibition ([2]; read-out: % Inhibition 2): 22% | inhibition ([2]; read-out: % Inhibition Avg): 22% | inhibition ([3]; read-out: % Inhibition 1): 40% | inhibition ([3]; read-out: % Inhibition 2): 39% | inhibition ([3]; read-out: % Inhibition Avg): 40%
